Reference: US20070203209A1, “Useful indole compounds” (priority 2005, published 2007)

System: ovalbumin-induced eosinophil induction (eosinophils in BAL fluid)
Assay: Rat Ovalbumin Model (ovalbumin-induced airway cell proliferation and inflammation)
Type: in vivo, Brown Norway rats
Details: ability to prevent ovalbumin-induced eosinophil induction (percentage of eosinophils in BAL fluid); test compounds dosed orally at 5 mg/kg twice daily, days 5-12; samples 24 hours after last OVA challenge
Description: Complete protocol details can be found in Eynott et al. (2003. J. Pharmacol. Ther. 304:22-29). Briefly, Brown Norway rats are sensitized on days 1, 2, and 3 with intraperitoneal (i.p.) injections of lmg ovalbumin (OVA) and 100 mg Al(OH)3 in 1 mL 0.9% NaCl saline. They are then exposed to either 0.9% NaCl saline or 1% OVA aerosol every 3rd day (days 6, 9, & 12) for 30 minutes. 2 mg/kg dexamethasone is used as a positive control and is dosed i.p. once a day on days 4, 5, 6, 9, & 12. Vehicle (15% β-cyclodextrins in DMSO) and test compounds are dosed orally twice a day on days 5-12. On challenge days, all animals are treated 1 hour prior to OVA allergen exposure and, if required for twice a day treatment, ˜4-8 hours after allergen exposure. Samples are collected 24 hours after the last OVA challenge. For sample collection, rats are anaesthetized by administration of 10 mg/kg xylazine and 60 mg/kg ketamine intraperitoneally. Once the rats were fully anesthetized, blood is collected for serum via the retro-orbital route. The rats are subsequently perfused by injecting 30 mL PBS through the right ventricle of the heart after the abdominal aorta is severed. A tracheostomy is then performed and bronchoalveolar lavage fluid (BAL) is collected through five 5 mL rinses using Hank's Balanced Salt Solution, which was kept on ice. Airway inflammatory cell accumulation and proliferation of cells are measured through the BAL fluid collection and subsequent cell counts. Cytospin slides are prepared and eosinophil % are determined by counting ˜400 cells per slide. The test compounds are dosed at 5 mg/kg twice daily. Activity is scored based on the ability of the test compound to prevent ovalbumin-induced eosinophil induction (as determined by percentage of eosinophils in BAL fluid).

Compound	Activity (P < 0.05)
Cc1cc2c(CC(=O)O)c(C)n(Cc3nc4ccccc4s3)c2cc1Cl [[1-(1,3-benzothiazol-2-ylmethyl)-6-chloro-2,5-dimethyl-1H-indol-3-yl]acetic acid]	no
Cc1c(CC(=O)O)c2cc(F)c(Cl)cc2n1Cc1nc2ccccc2s1 [[1-(1,3-benzothiazol-2-ylmethyl)-6-chloro-5-fluoro-2-methyl-1H-indol-3-yl]acetic acid]	no
COc1cc2c(CC(=O)O)c(C)n(Cc3nc4ccccc4s3)c2cc1Cl [[1-(1,3-benzothiazol-2-ylmethyl)-6-chloro-5-methoxy-2-methyl-1H-indol-3-yl]acetic acid]	no
COc1cc2c(CC(=O)O)c(C)n(Cc3cccc(Br)c3)c2cc1Cl [[1-(3-bromobenzyl)-6-chloro-5-methoxy-2-methyl-1H-indol-3-yl]acetic acid]	no
COc1cc2c(CC(=O)O)c(C)n(Cc3cc(Cl)cc(Cl)c3)c2cc1Cl [[6-chloro-1-(3,5-dichlorobenzyl)-5-methoxy-2-methyl-1H-indol-3-yl]acetic acid]	no
COc1cc2c(CC(=O)O)c(C)n(Cc3cccc(Cl)c3)c2cc1Cl [[6-chloro-1-(3-chlorobenzyl)-5-methoxy-2-methyl-1H-indol-3-yl]acetic acid]	no
Cc1c(CC(=O)O)c2c(Cl)cc(Cl)cc2n1Cc1cccc(OC(F)(F)F)c1 [{4,6-dichloro-2-methyl-1-[3-(trifluoromethoxy)benzyl]-1H-indol-3-yl}acetic acid]	no
Cc1c(CC(=O)O)c2cc(Cl)c(Cl)cc2n1Cc1cccc(OC(F)(F)F)c1 [{5,6-dichloro-2-methyl-1-[3-(trifluoromethoxy)benzyl]-1H-indol-3-yl}acetic acid]	no
Cc1cc2c(CC(=O)O)c(C)n(Cc3cccc(OC(F)(F)F)c3)c2cc1Cl [{6-chloro-2,5-dimethyl-1-[3-(trifluoromethoxy)benzyl]-1H-indol-3-yl}acetic acid]	yes
Cc1cc2c(CC(=O)O)c(C)n(Cc3cccc(C(F)(F)F)c3)c2cc1Cl [{6-chloro-2,5-dimethyl-1-[3-(trifluoromethyl)benzyl]-1H-indol-3-yl}acetic acid]	no
Cc1c(CC(=O)O)c2cc(F)c(Cl)cc2n1Cc1cccc(OC(F)(F)F)c1 [{6-chloro-5-fluoro-2-methyl-1-[3-(trifluoromethoxy)benzyl]-1H-indol-3-yl}acetic acid]	no
COc1cc2c(CC(=O)O)c(C)n(Cc3cccc(OC(F)(F)F)c3)c2cc1Cl [{6-chloro-5-methoxy-2-methyl-1-[3-(trifluoromethoxy)benzyl]-1H-indol-3-yl}acetic acid]	yes
COc1cc2c(CC(=O)O)c(C)n(Cc3cccc(C(F)(F)F)c3)c2cc1Cl [{6-chloro-5-methoxy-2-methyl-1-[3-(trifluoromethyl)benzyl]-1H-indol-3-yl}acetic acid]	no
